Experimental data: the NIST ThermoML archive (doi:10.1021/je4003256)
Numbers after ± are expanded uncertainties.

Settings: 101.33 kPa, Liquid; for speed of sound: Pulse-echo method; for mass density: Vibrating tube method

Structure (SMILES)	speed of sound (293.15 K)	mass density (293.15 K)	speed of sound (298.15 K)	mass density (298.15 K)	speed of sound (303.15 K)	mass density (303.15 K)	speed of sound (308.15 K)	mass density (308.15 K)	speed of sound (318.15 K)	mass density (318.15 K)	speed of sound (323.15 K)	mass density (323.15 K)	speed of sound (328.15 K)	mass density (328.15 K)	speed of sound (333.15 K)	mass density (333.15 K)	speed of sound (338.15 K)	mass density (338.15 K)	speed of sound (343.15 K)	mass density (343.15 K)	also measured
COC(=O)c1ccccc1O [methyl 2-hydroxybenzoate]	1429.1 ± 1.3 m/s	1184.33 ± 0.38 kg/m3	1410.6 ± 1.3 m/s	1179.34 ± 0.38 kg/m3	1392.3 ± 1.2 m/s	1174.35 ± 0.37 kg/m3	1374 ± 1.2 m/s	1169.37 ± 0.37 kg/m3	1338.1 ± 1.2 m/s	1159.4 ± 0.36 kg/m3	1320.4 ± 1.2 m/s	1154.42 ± 0.36 kg/m3	1302.8 ± 1.2 m/s	1149.45 ± 0.35 kg/m3	1285.4 ± 1.2 m/s	1144.46 ± 0.35 kg/m3	1268.1 ± 1.2 m/s	1139.47 ± 0.34 kg/m3	1250.9 ± 1.2 m/s	1134.49 ± 0.34 kg/m3	speed of sound (288.15 K): 1447.6 ± 1.3 m/s; mass density (288.15 K): 1189.32 ± 0.39 kg/m3; speed of sound (313.15 K): 1356 ± 1.2 m/s; mass density (313.15 K): 1164.38 ± 0.36 kg/m3
Cc1ccccc1O [2-methylphenol]	1522.6 ± 1.3 m/s	1045.77 ± 0.27 kg/m3	1505.5 ± 1.3 m/s	1041.41 ± 0.26 kg/m3	1488.2 ± 1.3 m/s	1037.05 ± 0.26 kg/m3	1470.2 ± 1.3 m/s	1032.64 ± 0.26 kg/m3	1435.2 ± 1.3 m/s	1023.83 ± 0.25 kg/m3	1417.7 ± 1.3 m/s	1019.39 ± 0.24 kg/m3	1400.2 ± 1.2 m/s	1014.93 ± 0.24 kg/m3	1382.8 ± 1.2 m/s	1010.46 ± 0.24 kg/m3	1365.3 ± 1.2 m/s	1005.97 ± 0.23 kg/m3	1347.7 ± 1.2 m/s	1001.46 ± 0.23 kg/m3	speed of sound (313.15 K): 1452.7 ± 1.3 m/s; mass density (313.15 K): 1028.25 ± 0.25 kg/m3
Cc1cccc(O)c1 [3-methylphenol]	1497.9 ± 1.3 m/s	1033.84 ± 0.26 kg/m3	1481.9 ± 1.3 m/s	1029.91 ± 0.25 kg/m3	1466.2 ± 1.3 m/s	1025.96 ± 0.25 kg/m3	1450.5 ± 1.3 m/s	1021.99 ± 0.25 kg/m3	1419.5 ± 1.3 m/s	1013.99 ± 0.24 kg/m3	1403.9 ± 1.2 m/s	1009.97 ± 0.24 kg/m3	1388.4 ± 1.2 m/s	1005.91 ± 0.23 kg/m3	1372.9 ± 1.2 m/s	1001.84 ± 0.23 kg/m3	1357.3 ± 1.2 m/s	997.743 ± 0.23 kg/m3	1341.8 ± 1.2 m/s	993.626 ± 0.23 kg/m3	speed of sound (313.15 K): 1435 ± 1.3 m/s; mass density (313.15 K): 1018 ± 0.24 kg/m3
Cc1ccc(O)cc1 [4-methylphenol]	1502.9 ± 2.1 m/s	1034.09 ± 0.91 kg/m3	1487.2 ± 2.1 m/s	1030.25 ± 0.9 kg/m3	1471.4 ± 2.1 m/s	1026.39 ± 0.89 kg/m3	1455.6 ± 2.1 m/s	1022.5 ± 0.88 kg/m3	1424.3 ± 2.1 m/s	1014.66 ± 0.87 kg/m3	1408.7 ± 2.1 m/s	1010.7 ± 0.86 kg/m3	1393 ± 2.1 m/s	1006.72 ± 0.85 kg/m3	1377.4 ± 2.1 m/s	1002.7 ± 0.84 kg/m3	1361.8 ± 2.1 m/s	998.659 ± 0.84 kg/m3	1346.2 ± 2.1 m/s	994.587 ± 0.83 kg/m3	speed of sound (313.15 K): 1440 ± 2.1 m/s; mass density (313.15 K): 1018.59 ± 0.88 kg/m3
Oc1ccccc1 [phenol]									1437.2 ± 1.3 m/s	1054.1 ± 0.27 kg/m3	1422.1 ± 1.3 m/s	1049.81 ± 0.27 kg/m3	1406.8 ± 1.2 m/s	1045.5 ± 0.27 kg/m3	1391.4 ± 1.2 m/s	1041.16 ± 0.26 kg/m3	1376.1 ± 1.2 m/s	1036.79 ± 0.26 kg/m3	1360.6 ± 1.2 m/s	1032.4 ± 0.26 kg/m3	
C=CCc1ccc(O)c(OC)c1 [2-hydroxy-5-allylanisole]	1497 ± 1.3 m/s	1066.48 ± 0.28 kg/m3	1478.7 ± 1.3 m/s	1062.06 ± 0.28 kg/m3	1460.3 ± 1.3 m/s	1057.64 ± 0.28 kg/m3	1442.2 ± 1.3 m/s	1053.21 ± 0.27 kg/m3	1406.1 ± 1.2 m/s	1044.35 ± 0.27 kg/m3	1388.2 ± 1.2 m/s	1039.92 ± 0.26 kg/m3	1370.5 ± 1.2 m/s	1035.48 ± 0.26 kg/m3	1352.8 ± 1.2 m/s	1031.04 ± 0.25 kg/m3	1335.2 ± 1.2 m/s	1026.6 ± 0.25 kg/m3	1317.8 ± 1.2 m/s	1022.15 ± 0.25 kg/m3	speed of sound (288.15 K): 1515.3 ± 1.3 m/s; mass density (288.15 K): 1070.9 ± 0.29 kg/m3; speed of sound (313.15 K): 1424.1 ± 1.3 m/s; mass density (313.15 K): 1048.78 ± 0.27 kg/m3
COc1ccccc1O [2-methoxyphenol]	1548.3 ± 1.3 m/s	1133.81 ± 0.34 kg/m3	1528.7 ± 1.3 m/s	1128.96 ± 0.34 kg/m3	1509.3 ± 1.3 m/s	1124.11 ± 0.33 kg/m3	1490 ± 1.3 m/s	1119.25 ± 0.33 kg/m3	1451.5 ± 1.3 m/s	1109.51 ± 0.32 kg/m3	1432.4 ± 1.3 m/s	1104.63 ± 0.32 kg/m3	1413.5 ± 1.3 m/s	1099.74 ± 0.31 kg/m3	1394.6 ± 1.2 m/s	1094.84 ± 0.31 kg/m3	1375.8 ± 1.2 m/s	1089.94 ± 0.3 kg/m3	1357.1 ± 1.2 m/s	1085.02 ± 0.3 kg/m3	speed of sound (288.15 K): 1567.6 ± 1.3 m/s; mass density (288.15 K): 1138.64 ± 0.34 kg/m3; speed of sound (313.15 K): 1470.7 ± 1.3 m/s; mass density (313.15 K): 1114.38 ± 0.32 kg/m3
